Laboratory results: the NIST ThermoML archive (doi:10.1016/j.jct.2012.02.004)

Assay: xn = mol fraction of the nth substance listed
Conditions: 298.15 K, 101 kPa, Liquid, Taylor dispersion method

With C[N+](C)(C)CCCCCCCCCCCC[N+](C)(C)C.[Br-].[Br-] + O as the compound, how does the binary diffusion coefficient (x1 = 0) read?
The binary diffusion coefficient was 1.01e-09 m2/s.

What about the binary diffusion coefficient (x1 = 0.00119) of the same compound?
Its binary diffusion coefficient is 9.72e-10 m2/s.

And the binary diffusion coefficient (x1 = 0.00475)?
Its binary diffusion coefficient is 9.45e-10 m2/s.

What about the binary diffusion coefficient (x1 = 0.0095) of the same compound?
Its binary diffusion coefficient is 9.11e-10 m2/s.

And the binary diffusion coefficient (x1 = 0.019)?
The binary diffusion coefficient was 8.7e-10 m2/s.

What about the binary diffusion coefficient (x1 = 0.038) of the same compound?
The binary diffusion coefficient was 8.05e-10 m2/s.

For C[N+](C)(C)CCCCCCCCCC[N+](C)(C)C.[Br-].[Br-] [decamethonium bromide] + O, which binary diffusion coefficient (x1 = 0) is on record?
The binary diffusion coefficient was 1.06e-09 m2/s.

And the binary diffusion coefficient (x1 = 0.00119)?
The binary diffusion coefficient was 9.9e-10 m2/s.

What about the binary diffusion coefficient (x1 = 0.00475) of the same compound?
The binary diffusion coefficient was 9.55e-10 m2/s.

And the binary diffusion coefficient (x1 = 0.0095)?
Its binary diffusion coefficient is 9.04e-10 m2/s.

And the binary diffusion coefficient (x1 = 0.019)?
The binary diffusion coefficient was 8.61e-10 m2/s.

What about the binary diffusion coefficient (x1 = 0.038) of the same compound?
Its binary diffusion coefficient is 8.43e-10 m2/s.
